This note sets out measurements from ChEMBL document CHEMBL1129815, “Ester prodrugs of ampicillin tailored for intracellular accumulation” (Bioorg Med Chem Lett, 1997).

Data set [1] is described as follows: Half-life in 0.02 M phosphate buffer, 0.15 M NaCl, at a pH of 7.4, at 37 degree Celsius was determined. The format is ADME. The conditions noted are these: pH 7.4.
The test system of a further data set is Staphylococcus aureus. The data set can be described thus: The minimum inhibition concentration (MIC) against Staphylococcus aureus after hydrolysis 24 hr in phosphate buffer was determined. In kind it is functional.

In brackets after ≈: the same amount, converted by molar mass.

In data set [1], `CC1(C)S[C@@H]2[C@H](NC(=O)[C@H](N)c3ccccc3)C(=O)N2[C@H]1C(=O)OCn1c(=O)oc2ccccc21` showed a half-life of 2.5 h. Still for that read-out and setting: the result for `CC1(C)S[C@@H]2[C@H](NC(=O)[C@H](N)c3ccccc3)C(=O)N2[C@H]1C(=O)OCN1C(=O)CCCC1=O` reads 3 h; that for `CC1(C)S[C@@H]2[C@H](NC(=O)[C@H](N)c3ccccc3)C(=O)N2[C@H]1C(=O)OCN1C(=O)CCC1=O`, 2.5 h; that for `CC1(C)S[C@@H]2[C@H](NC(=O)[C@H](N)c3ccccc3)C(=O)N2[C@H]1C(=O)OCN1C(=O)CC(=C2CCCCC2)C1=O` [listing 1 of 2 here], 5.13 h. For the compound `CC1(C)S[C@@H]2[C@H](NC(=O)[C@H](N)c3ccccc3)C(=O)N2[C@H]1C(=O)OCN1C(=O)CC(=C2CCCCC2)C1=O` [listing 2 of 2 here], the MIC with Staphylococcus aureus was 1.16 µM (≈ 0.627 µg/mL).

For the compound `CC1(C)S[C@@H]2[C@H](NC(=O)[C@H](N)c3ccccc3)C(=O)N2[C@H]1C(=O)OCN1C(=O)c2ccccc2S1(=O)=O`, the half-life in data set [1] came to 1.08 h.

Turning to `CC1(C)S[C@@H]2[C@H](NC(=O)[C@H](N)c3ccccc3)C(=O)N2[C@H]1C(=O)OCOc1ccccc1`, the half-life in data set [1] came out at 3.58 h. Compared with the last compound, the half-life is about 3.3-fold higher.

With `CC1(C)S[C@@H]2[C@H](NC(=O)[C@H](N)c3ccccc3)C(=O)N2[C@H]1C(=O)OCN1C(=O)c2ccccc2C1=O` [listing 1 of 2 here], the half-life in data set [1] is 1.08 h. `CC1(C)S[C@@H]2[C@H](NC(=O)[C@H](N)c3ccccc3)C(=O)N2[C@H]1C(=O)OCN1C(=O)c2ccccc2C1=O` [listing 2 of 2 here]: the MIC with Staphylococcus aureus was determined as 0.53 µM (≈ 0.27 µg/mL). `CC(C)(C)C(=O)OCOC(=O)[C@@H]1N2C(=O)[C@@H](NC(=O)C(N)c3ccccc3)[C@H]2SC1(C)C` (single isomer, unassigned) [PIVAMPICILLIN]: 0.65 µM (≈ 0.301 µg/mL) was the least that counted as inhibitory against Staphylococcus aureus (MIC). Moreover, the half-life in data set [1] was determined as 2 h.

The term half-life denotes the time in which the quantity being followed falls by half. Low readings indicate fast loss, high ones slow loss. As a reminder, the MIC is the lowest concentration found to suppress growth.
